Measured values taken from article PMC6736568, “Discovery of Novel Anti-cryptosporidial Activities From Natural Products by in vitro High-Throughput Phenotypic Screening” (Frontiers in Microbiology, 2019).
Structures can show the parent of a compound that is named as a salt. Where two headings read alike, the source gives them in different places.

Key:
[1] = system: Cryptosporidium parvum; test: qRT-PCR assay of the growth of C. parvum in vitro in HCT-8 host cells (primary and secondary screening, EC50); type: cell-based; details: Cryptosporidium parvum
[2] = system: HCT-8 host cells (Hs18S)
[3] = in vitro
[4] = HCT-8, primary screening at 10 uM, read-out: Inhibition (%)
[5] = primary screening at 10 uM, treated vs control
[6] = HCT-8, secondary screening at 3.3 uM, read-out: % Inhibition (3.3 uM)

SMILES	inhibition at 10 µM [1, 4] [%]	Hs18S ΔCT [2, 5]	cytotoxicity at 10 µM [3] [%]	Hs18S ΔCT ([2]; human, 41 h, 10 μM)	cytotoxicity at 41 h, 10 µM ([3]; human) [%]	further results
C1CCN2C[C@@H]3C[C@@H](CN4CCCC[C@@H]34)[C@H]2C1 [SPARTEINE SULFATE]	-14.6	0.04	3	–	–	–
NCCCCNCCCN [SPERMIDINE TRIHYDROCHLORIDE]	23.9	–	–	-0.63	-54.4	–
NCCCNCCCCNCCCN [SPERMINE]	-7.42	–	–	-0.43	-35.1	–
COc1cc2ccc(=O)oc2c2ccoc12 [SPHONDIN]	-5.49	0.32	20.1	–	–	–
COc1cc(C)c2c(c1C=O)Oc1c(c(C)c(O)c3c1C(O)OC3=O)OC2=O (centres unmarked) [STICTIC ACID]	-0.45	–	–	0.08	5.5	–
CC[C@H](/C=C/[C@@H](C)[C@H]1CC[C@H]2[C@@H]3CC=C4C[C@@H](O)CC[C@]4(C)[C@H]3CC[C@]12C)C(C)C [STIGMASTEROL]	-18	0.96	48.6	–	–	–
[H]/N=C(/N)N[C@H]1[C@H](O)[C@@H](O)[C@H](O[C@@H]2O[C@@H](C)[C@](O)(C=O)[C@H]2O[C@@H]2O[C@@H](CO)[C@H](O)[C@@H](O)[C@@H]2NC)[C@@H](N/C(N)=N\[H])[C@@H]1O [STREPTOMYCIN SULFATE]	15.4	–	–	-0.10	-7.1	–
O=C1C[C@@H]2OCC=C3CN4CC[C@]56c7ccccc7N1[C@H]5[C@H]2[C@H]3C[C@H]46 [STRYCHNINE]	–	–	-23.5	–	–	inhibition at 10 µM ([1]; HCT-8): 29%; Hs18S ΔCT [2]: -0.30
COc1cc(C(=O)O)cc(OC)c1O [SYRINGIC ACID]	3.63	-0.26	-20	–	–	–
C=CC[C@@H]1/C=C(\C)C[C@H](C)C[C@H](OC)[C@H]2O[C@@](O)(C(=O)C(=O)N3CCCC[C@H]3C(=O)O[C@H](/C(C)=C/[C@@H]3CC[C@@H](O)[C@H](OC)C3)[C@H](C)[C@@H](O)CC1=O)[C@H](C)C[C@@H]2OC [TACROLIMUS]	75.6	–	–	0.16	10.4	inhibition at 3.3 µM [1, 6]: -14%
CN(C)[C@@H]1C(O)=C(C(N)=O)C(=O)[C@@]2(O)C(O)=C3C(=O)c4c(O)cccc4[C@@](C)(O)[C@H]3C[C@@H]12 [TETRACYCLINE HYDROCHLORIDE]	-17.3	–	-24.3	–	–	Hs18S ΔCT [2]: -0.31
COc1ccc2cc1Oc1ccc(cc1)C[C@H]1c3cc(c(OC)cc3CCN1C)Oc1c(OC)c(OC)cc3c1[C@H](C2)N(C)CC3 [TETRANDRINE]	80.4	–	–	-0.04	-2.5	inhibition at 3.3 µM [1, 6]: 1%
O=C(O[C@@H]1Cc2c(O)cc(O)cc2O[C@@H]1c1cc(O)c(=O)c2c(O)c(O)cc([C@H]3Oc4cc(O)cc(O)c4C[C@H]3O)c2c1)c1cc(O)c(O)c(O)c1 [THEAFLAVIN MONOGALLATES]	25.6	–	–	-0.10	-7.4	–
O=c1c(O)cc([C@H]2Oc3cc(O)cc(O)c3C[C@H]2O)cc2c([C@H]3Oc4cc(O)cc(O)c4C[C@H]3O)cc(O)c(O)c12 [THEAFLAVIN]	10.2	–	–	0.11	7.6	–
Cn1cnc2c1c(=O)[nH]c(=O)n2C [THEOBROMINE]	-18.1	–	–	0.03	2.2	–
Cn1c(=O)c2[nH]cnc2n(C)c1=O [THEOPHYLLINE]	20.5	-0.29	-22.6	–	–	–
CC1=CC(=O)C(C(C)C)=CC1=O [THYMOQUINONE]	3.13	–	–	-0.08	-5.8	–
C[C@@H]1CC[C@@]2(OC1)O[C@H]1C[C@H]3[C@@H]4CC[C@H]5C[C@@H](O)CC[C@]5(C)[C@H]4CC[C@]3(C)[C@H]1[C@@H]2C [TIGOGENIN]	15.4	-0.40	–	–	–	cytotoxicity at 41 h, 10 µM [3]: -31.8%
NC[C@H]1O[C@H](O[C@H]2[C@H](O)[C@@H](O[C@H]3O[C@H](CO)[C@@H](O)[C@H](N)[C@H]3O)[C@H](N)C[C@@H]2N)[C@H](N)C[C@@H]1O [TOBRAMYCIN]	4.08	–	–	-0.49	-40.8	–

SMILES	inhibition at 10 µM [1, 4] [%]	Hs18S ΔCT [2, 5]	cytotoxicity at 10 µM [3] [%]	Hs18S ΔCT ([2]; human, 41 h, 10 μM)	cytotoxicity at 41 h, 10 µM ([3]; human) [%]	further results
C[C@H]1CC[C@]2(NC1)O[C@H]1C[C@H]3[C@@H]4CC[C@H]5C[C@@H](O[C@@H]6O[C@H](CO)[C@H](O[C@@H]7O[C@H](CO)[C@@H](O)[C@H](O[C@@H]8OC[C@@H](O)[C@H](O)[C@H]8O)[C@H]7O[C@@H]7O[C@H](CO)[C@@H](O)[C@H](O)[C@H]7O)[C@H](O)[C@H]6O)CC[C@]5(C)[C@H]4CC[C@]3(C)[C@H]1[C@@H]2C [TOMATINE]	92.9	0.04	2.7	–	–	inhibition at 3.3 µM [1, 6]: 25%
CC(C)c1c(O)ccc2c1CC[C@H]1C(C)(C)CCC[C@]21C [TOTAROL]	-9.45	–	–	-0.36	-28.4	–
CC1=C(/C=C/C(C)=C/C=C/C(C)=C/C(=O)O)C(C)(C)CCC1 [TRETINOIN]	7.49	–	–	-0.28	-21.5	–
CC(=O)Oc1ccc(/C=C/c2cc(OC(C)=O)cc(OC(C)=O)c2)cc1 [TRIACETYLRESVERATROL]	-64.8	0.19	12.4	–	–	–
C[n+]1cccc(C(=O)[O-])c1 [TRIGONELLINE]	-29.9	–	–	0.03	2.2	–
CC(C)c1ccc2c(c1O)CC[C@H]1C3=C(CC[C@]21C)C(=O)OC3 [TRIPTOPHENOLIDE]	-24.5	–	–	-0.29	-22.1	–
NCCc1c[nH]c2ccccc12 [TRYPTAMINE]	95.5	-0.43	-34.7	–	–	inhibition at 3.3 µM [1, 6]: 12%
N[C@@H](Cc1c[nH]c2ccccc12)C(=O)O [TRYPTOPHAN]	–	–	–	-0.75	-68.2	inhibition at 10 µM ([1]; HCT-8): 85.5%; inhibition at 3.3 µM ([1]; HCT-8, read-out: % Inhibition (3.3 uM)): 17%
NCCc1ccc(O)cc1 [TYRAMINE]	-27.4	–	-20.9	-0.27	–	–
O=c1ccc2ccc(O)cc2o1 [UMBELLIFERONE]	-15.7	–	-88.9	–	–	Hs18S ΔCT [2]: -0.92
O=c1cc[nH]c(=O)[nH]1 [URACIL]	2.08	-0.28	–	–	-21.4	–
O=c1ccn([C@@H]2O[C@H](CO)[C@@H](O)[C@H]2O)c(=O)[nH]1 [URIDINE]	44.8	–	–	0.02	1.4	–
COc1ccc(C(=O)CC(=O)O)c2c1C=CC(C)(C)O2 [URSINOIC ACID]	14.2	–	–	-0.46	-37.5	–
C[C@H](CCC(=O)O)[C@H]1CC[C@H]2[C@@H]3CC[C@@H]4CCCC[C@]4(C)[C@H]3CC[C@]12C [URSOCHOLANIC ACID]	59.3	-0.10	–	–	–	cytotoxicity at 41 h, 10 µM [3]: -6.9%
C[C@H](CCC(=O)O)[C@H]1CC[C@H]2[C@@H]3[C@@H](O)C[C@@H]4C[C@H](O)CC[C@]4(C)[C@H]3CC[C@]12C [URSODIOL]	-41.7	–	–	-0.15	-10.9	–
CC(=O)c1c(O)c(C)c(O)c2c1OC1=CC(=O)C(C(C)=O)C(=O)C12C (centres unmarked) [USNIC ACID]	18.8	-0.31	-23.9	–	–	–
CCC(C)C(=O)O[C@@H]1C[C@@]2(C)[C@H](c3ccoc3)OC(=O)CC23OC2(C)O[C@]14[C@]1(C)[C@@H](CC(=O)OC)C5(C)CC1(O)[C@](O)(C5OC(=O)C1(C)OC1C)[C@@H](OC(C)=O)[C@]34O2 (some centres unmarked) [UTILIN]	36.8	–	–	0.06	4.2	–
COc1ccc(C(=O)O)cc1OC [VERATRIC ACID]	-10.7	-0.09	-6.7	–	–	–
